Format in all cases: functional
The subject of assay [1] is UO-31. Kind of assay: Growth inhibition of human UO31 cells assessed as cell growth at 0.01 uM incubated for 48 hrs by sulforhodamine B assay relative to control. The settings on record: UO-31, 48 h, read-out: Activity. A general note: Sulforhodamine B stains cellular protein and so reports cell mass.
The test system of the next assay is SF-539. Kind of assay: Growth inhibition of human SF539 cells assessed as cell growth at 0.01 uM incubated for 48 hrs by sulforhodamine B assay relative to control. The settings on record: SF-539, 48 h, read-out: Activity.
Assay [2] relates to HOP-62. Kind of assay: Growth inhibition of human HOP62 cells assessed as cell growth at 10 uM incubated for 48 hrs by sulforhodamine B assay relative to control. The settings on record: HOP-62, 48 h, read-out: Activity.
The subject of a further assay is SK-MEL-5. Description: Growth inhibition of human SK-MEL-5 cells assessed as cell growth at 1 uM incubated for 48 hrs by sulforhodamine B assay relative to control. The settings on record: SK-MEL-5, 48 h, read-out: Activity.
Assay [3] deals with ACHN. Kind of assay: Growth inhibition of human ACHN cells assessed as cell growth at 1 uM incubated for 48 hrs by sulforhodamine B assay relative to control. The settings on record: read-out: Activity.
The subject of a further assay is SF-295. Description: Growth inhibition of human SF295 cells assessed as cell growth at 100 uM incubated for 48 hrs by sulforhodamine B assay relative to control. The settings on record: SF-295, 48 h, read-out: Activity.
The test system of the next assay is KM12. Description: Growth inhibition of human KM12 cells assessed as cell growth at 0.1 uM incubated for 48 hrs by sulforhodamine B assay relative to control. The settings on record: KM12, 48 h, read-out: Activity.
The test system of assay [4] is ACHN. Description: Growth inhibition of human ACHN cells assessed as cell growth at 0.01 uM incubated for 48 hrs by sulforhodamine B assay relative to control. The settings on record: read-out: Activity.
The test system of a further assay is HT-29. Kind of assay: Growth inhibition of human HT-29 cells assessed as cell growth at 0.1 uM incubated for 48 hrs by sulforhodamine B assay relative to control. The settings on record: HT-29, 48 h, read-out: Activity.
Assay [5] concerns TK-10. Description: Growth inhibition of human TK10 cells assessed as cell growth at 1 uM incubated for 48 hrs by sulforhodamine B assay relative to control. The settings on record: TK-10, 48 h, read-out: Activity.
In another assay the test system is NCI-H23. Kind of assay: Growth inhibition of human NCI-H23 cells assessed as cell growth at 100 uM incubated for 48 hrs by sulforhodamine B assay relative to control. The settings on record: NCI-H23, 48 h, read-out: Activity.
Assay [6] has as its system UO-31. Description: Growth inhibition of human UO31 cells assessed as cell growth at 10 uM incubated for 48 hrs by sulforhodamine B assay relative to control. The settings on record: UO-31, 48 h, read-out: Activity.
In a further assay the test system is HL-60(TB). Description: Growth inhibition of human HL-60(TB) cells assessed as cell growth at 0.1 uM incubated for 48 hrs by sulforhodamine B assay relative to control. The settings on record: HL-60, 48 h, read-out: Activity.
For another assay, the system named is CAKI-1. Description: Growth inhibition of human Caki1 cells assessed as cell growth at 10 uM incubated for 48 hrs by sulforhodamine B assay relative to control. The settings on record: CAKI-1, 48 h, read-out: Activity.
Another assay deals with HCT-116. Description: Growth inhibition of human HCT116 cells assessed as cell growth at 0.01 uM incubated for 48 hrs by sulforhodamine B assay relative to control. The settings on record: HCT-116, 48 h, read-out: Activity.
Assay [7] concerns HCT-15. Description: Growth inhibition of human HCT15 cells assessed as cell growth at 10 uM incubated for 48 hrs by sulforhodamine B assay relative to control. The settings on record: HCT-15, 48 h, read-out: Activity.
The test system of assay [8] is HOP-62. Description: Growth inhibition of human HOP62 cells assessed as cell growth at 100 uM incubated for 48 hrs by sulforhodamine B assay relative to control. The settings on record: HOP-62, 48 h, read-out: Activity.
A further assay deals with U-251. Kind of assay: Growth inhibition of human U251 cells assessed as cell growth at 0.1 uM incubated for 48 hrs by sulforhodamine B assay relative to control. The settings on record: U-251, 48 h, read-out: Activity.
In the next assay the test system is SK-MEL-2. Description: Growth inhibition of human SK-MEL-2 cells assessed as cell growth at 0.3 uM incubated for 48 hrs by sulforhodamine B assay relative to control. The settings on record: SK-MEL-2, 48 h, read-out: Activity.
The next assay relates to NCI-H322M. Description: Growth inhibition of human NCI-H322M cells assessed as cell growth at 0.3 uM incubated for 48 hrs by sulforhodamine B assay relative to control. The settings on record: read-out: Activity.
The test system of the next assay is NCI-H460. Kind of assay: Growth inhibition of human NCI-H460 cells assessed as cell growth at 30 uM incubated for 48 hrs by sulforhodamine B assay relative to control. The settings on record: NCI-H460, 48 h, read-out: Activity.
The subject of a further assay is SR. Kind of assay: Growth inhibition of human SR cells assessed as cell growth at 0.003 uM incubated for 48 hrs by sulforhodamine B assay relative to control. The settings on record: read-out: Activity.
A further assay relates to OVCAR-4. Kind of assay: Growth inhibition of human OVCAR4 cells assessed as cell growth at 0.03 uM incubated for 48 hrs by sulforhodamine B assay relative to control. The settings on record: OVCAR-4, 48 h, read-out: Activity.
For a further assay, the system named is A549. Kind of assay: Growth inhibition of human A549/ATCC cells assessed as cell growth at 0.3 uM incubated for 48 hrs by sulforhodamine B assay relative to control. The settings on record: A549, 48 h, read-out: Activity.
The test system of a further assay is SN12C. Kind of assay: Growth inhibition of human SN12C cells assessed as cell growth at 0.003 uM incubated for 48 hrs by sulforhodamine B assay relative to control. The settings on record: read-out: Activity.
A further assay relates to CCRF-CEM. Description: Growth inhibition of human CCRF-CEM cells assessed as cell growth at 30 uM incubated for 48 hrs by sulforhodamine B assay relative to control. The settings on record: read-out: Activity.
The test system of another assay is SK-OV-3. Kind of assay: Growth inhibition of human SKOV3 cells assessed as cell growth at 30 uM incubated for 48 hrs by sulforhodamine B assay relative to control. The settings on record: SK-OV-3, 48 h, read-out: Activity.
A further assay has as its system OVCAR-8. Kind of assay: Growth inhibition of human OVCAR8 cells assessed as cell growth at 0.3 uM incubated for 48 hrs by sulforhodamine B assay relative to control. The settings on record: OVCAR-8, 48 h, read-out: Activity.
Assay [9] has as its system HCT-15. Kind of assay: Growth inhibition of human HCT15 cells assessed as cell growth at 3 uM incubated for 48 hrs by sulforhodamine B assay relative to control. The settings on record: HCT-15, 48 h, read-out: Activity.
For another assay, the system named is OVCAR-5. Kind of assay: Growth inhibition of human OVCAR5 cells assessed as cell growth at 0.03 uM incubated for 48 hrs by sulforhodamine B assay relative to control. The settings on record: OVCAR-5, 48 h, read-out: Activity.
A further assay relates to PC-3. Description: Growth inhibition of human PC3 cells assessed as cell growth at 0.03 uM incubated for 48 hrs by sulforhodamine B assay relative to control. The settings on record: PC-3, 48 h, read-out: Activity.
The next assay has as its system K562. Description: Growth inhibition of human K562 cells assessed as cell growth at 0.003 uM incubated for 48 hrs by sulforhodamine B assay relative to control. The settings on record: K562, 48 h, read-out: Activity.
The subject of another assay is DU-145. Kind of assay: Growth inhibition of human DU145 cells assessed as cell growth at 3 uM incubated for 48 hrs by sulforhodamine B assay relative to control. The settings on record: DU-145, 48 h, read-out: Activity.
Assay [10] relates to TK-10. Kind of assay: Growth inhibition of human TK10 cells assessed as cell growth at 10 uM incubated for 48 hrs by sulforhodamine B assay relative to control. The settings on record: TK-10, 48 h, read-out: Activity.

SMILES strings stand for the structures.

As for `COc1cc2cc(Oc3ccc(NC(=O)Nc4ccc(Cl)c(Cl)c4)cc3)c(C)nc2cc1OC`, the growth at 0.01 µM is 96% in the assay on UO-31 [1], 101% with SF-539, 101% with ACHN [4] and 89% in the assay with HCT-116. For the same compound, the growth at 10 µM is 8% with HOP-62 [2], 6% in the assay with UO-31 [6], -18% in the assay with CAKI-1 and 19% with HCT-15 [7]. Also, the values for the growth at 1 µM in the assay with SK-MEL-5, in the assay with ACHN [3] and with TK-10 [5] were 91%, 91% and 114%, respectively. Further, the growth at 100 µM with SF-295 is -56%; in the assay on NCI-H23 it was -59%; in the assay on HOP-62 [8], -100%. Also, the growth at 0.1 µM turned out to be 104% in the assay on KM12, 110% in the assay with HT-29, 109% with HL-60(TB) and 93% in the assay with U-251.

On to `COc1cc2cc(Oc3ccc(NC(=O)Nc4ccc(Cl)c(C(F)(F)F)c4)cc3)c(C)nc2cc1OC`, for which the growth at 0.3 µM with SK-MEL-2 is 101%; with NCI-H322M, 112%; in the assay on A549 it was 89%; in the assay on OVCAR-8, 96%. Further, the values for the growth at 30 µM in the assay on NCI-H460, in the assay with CCRF-CEM and in the assay with SK-OV-3 were -62%, -38% and -51%, respectively. In addition, the growth at 0.003 µM turned out to be 99% in the assay on SR, 98% in the assay with SN12C and 95% in the assay with K562. Besides, the growth at 0.03 µM in the assay with OVCAR-4 came out at 96%; in the assay on OVCAR-5, 102%; in the assay on PC-3, 94%. Moreover, the growth at 3 µM with HCT-15 [9] was 16%; in the assay on DU-145, 17%.

As for `COc1cc2cc(Oc3ccc(NC(=O)Nc4cc(C(F)(F)F)cc(C(F)(F)F)c4)cc3)c(C)nc2cc1OC`, the growth at 0.01 µM with UO-31 [1] worked out at 82%; in the assay with SF-539, 92%; in the assay on ACHN [4], 94%; in the assay on HCT-116 it was 97%. The growth at 10 µM is -82% in the assay on HOP-62 [2]; 13.2% with TK-10 [10]; -70% with UO-31 [6]; -26% in the assay on CAKI-1; -91% with HCT-15 [7]. For the same compound, the growth at 1 µM in the assay on SK-MEL-5 worked out at 84%; in the assay on ACHN [3], 17%; with TK-10 [5] it was 81%. In addition, the growth at 100 µM in the assay on SF-295 was -84%; in the assay with NCI-H23, -68%; in the assay on HOP-62 [8], -92%. Further, the growth at 0.1 µM came out at 95% with KM12, 97% in the assay with HT-29, 84% in the assay on HL-60(TB) and 100% with U-251.

With `Cc1nc2cc(O)c(O)cc2cc1Oc1ccc(NC(=O)Nc2ccc(Cl)c(Cl)c2)cc1`, the growth at 0.3 µM in the assay on SK-MEL-2 was determined as 118%; with NCI-H322M, 110%; in the assay on A549, 96%; in the assay on OVCAR-8, 94%. In addition, the growth at 30 µM is -44% in the assay on NCI-H460, -16% in the assay on CCRF-CEM and 7% in the assay on SK-OV-3. In addition, the growth at 0.003 µM in the assay with SR came out at 100%; in the assay on SN12C it was 100%; with K562, 122%. For the same compound, the growth at 0.03 µM with OVCAR-4 stood at 98%; in the assay on OVCAR-5 it was 100%; in the assay with PC-3, 97%. The growth at 10 µM with TK-10 [10] is 85.3%. Moreover, the growth at 3 µM with HCT-15 [9] was determined as 62%; in the assay with DU-145, 82%.

These data come from ChEMBL document CHEMBL3994622, “Design and synthesis of new RAF kinase-inhibiting antiproliferative quinoline derivatives. Part 2: Diarylurea derivatives” (Eur J Med Chem, 2017).
